Reference: the NIST ThermoML archive (doi:10.1021/je101316g)

Legend:
[1] = 101.33 kPa, Liquid; for mass density: Vibrating tube method
[2] = refractive index (Na D-line) (dimensionless); conditions: 101.33 kPa, Liquid, Standard Abbe refractometry

CCCCC(CC)COC(=O)CC(C(=O)OCC(CC)CCCC)S(=O)(=O)[O-].CCCCCC[n+]1ccn(CCC#N)c1 (stereo not drawn)
Conditions	mass density, [1] [kg/m3]	refractive index, [2]	viscosity, [1] [mPa·s]
293.15 K	1092.7	–	–
298.15 K	1089	1.4797	19896
303.15 K	1085.4	1.47841	12117
308.15 K	1081.8	1.47709	7571.4
313.15 K	1078.3	1.4758	4586.7
318.15 K	1074.8	1.47447	2939.5
323.15 K	1071.3	1.47305	1947.7
328.15 K	1067.9	1.47171	1264.7
333.15 K	1064.4	1.47029	848.3
338.15 K	1061	–	579.4
343.15 K	1057.6	–	411.4
348.15 K	1054.2	–	278.6
353.15 K	1050.7	–	191.2

CCCCCCn1cc[n+](CCC#N)c1.O=S(=O)([O-])C(F)(F)F
Conditions	mass density, [1] [kg/m3]	refractive index, [2]	viscosity, [1] [mPa·s]
293.15 K	1289.6	–	2243.6
298.15 K	1285.7	1.52975	1469.7
303.15 K	1281.9	1.52891	991.9
308.15 K	1278.3	1.52774	648.5
313.15 K	1274.6	1.52683	437.8
318.15 K	1271	1.5259	301.9
323.15 K	1267.4	1.52464	214
328.15 K	1263.8	1.52334	155.1
333.15 K	1260.2	1.52226	102.7
338.15 K	1256.6	–	77.4
343.15 K	1253.1	–	54.8
348.15 K	1249.2	–	40.1
353.15 K	1245.8	–	29.4

CCCCCCn1cc[n+](CCC#N)c1.O=C([O-])c1cccc(S(=O)(=O)O)c1 [3-(2-cyanoethyl)-1-hexyl-1H-imidazolium 3-sulfobenzoate]
Conditions	mass density, [1] [kg/m3]	refractive index, [2]	viscosity, [1] [mPa·s]
293.15 K	1248.1	–	19212
298.15 K	1244.6	1.52295	11463
303.15 K	1241.2	1.52221	7578.3
308.15 K	1238	1.52146	4765.8
313.15 K	1234.7	1.52029	3001.1
318.15 K	1231.5	1.51936	1953.3
323.15 K	1228.2	1.518	1189.9
328.15 K	1225	1.51666	830.5
333.15 K	1221.8	1.51502	557.3
338.15 K	1218.6	–	352.1
343.15 K	1215.4	–	225.5
348.15 K	1212.1	–	133.6
353.15 K	1208.9	–	92.8

CCCCCCn1cc[n+](CCC#N)c1.O=S(=O)([O-])c1ccccc1 [3-(2-cyanoethyl)-1-hexyl-1H-imidazolium benzenesulfonate]
Conditions	mass density, [1] [kg/m3]	refractive index, [2]	viscosity, [1] [mPa·s]
293.15 K	1226	–	7079.4
298.15 K	1222.7	1.527	4268.1
303.15 K	1219.4	1.5261	2865.6
308.15 K	1216.1	1.52499	1795.1
313.15 K	1212.8	1.52382	1170.4
318.15 K	1209.6	1.52266	781.3
323.15 K	1206.3	1.52145	537.6
328.15 K	1203	1.52025	359.9
333.15 K	1199.7	1.51899	274.2
338.15 K	1196.5	–	181
343.15 K	1193.3	–	133.6
348.15 K	1190.1	–	94.6
353.15 K	1187.8	–	70

CCCCCCCCCCCCOS(=O)(=O)[O-].CCCCCCn1cc[n+](CCC#N)c1 [3-(2-cyanoethyl)-1-hexyl-1H-imidazolium dodecyl sulfate]
Conditions	mass density, [1] [kg/m3]	refractive index, [2]	viscosity, [1] [mPa·s]
293.15 K	1101.1	–	–
298.15 K	1097.8	1.48409	13770
303.15 K	1094.5	1.48269	8252.7
308.15 K	1091.2	1.48125	5185.2
313.15 K	1088	1.47991	3354.6
318.15 K	1084.7	1.47863	2051
323.15 K	1081.5	1.47702	1301.8
328.15 K	1078.3	1.47566	846.3
333.15 K	1075.1	1.47422	566.9
338.15 K	1071.9	–	390.1
343.15 K	1068.8	–	274.9
348.15 K	1065.6	–	189.5
353.15 K	1062.6	–	133.6
